{"source": "patent US10172814B2", "about": "“Substituted pyridyl-cycloalkyl-carboxylic acids, compositions containing them and medical uses thereof” (BAYER PHARMA AKTIENGESELLSCHAFT, priority 2014, dated 2019)", "key": {"[1]": {"tested_on": "CFA induced PGE2 release in the ipsilateral inflamed hind paw of human KI mice (expressing human PTGES)", "assay": "PGE2 measurements in CFA inflammation model using humanized KI mice", "type": "in vivo", "details": "p.o., single dose, hind paw 48 h after CFA, 1 h after dose", "experimental": "PGE2 Measurements in CFA Inflammation Model Using Humanized KI Mice\nFemale transgenic mice expressing the human PTGES enzyme (Taconic, Xu et al. 2008) received intraplantar injection of complete Freund's adjuvant (CFA) (30 μl, 1 mg/ml, Sigma) into the left hind paw under isoflurane anesthesia. […] At termination of the experiments (48 h after CFA, 1 h after dose), hind paw tissue is collected for analysis of PGE2 levels (ELISA, Cayman Chemical item no. 514531). […] Statistical analysis is performed with one-way analysis of variance, followed by Bonferroni's multiple comparison test vs. vehicle controls using the GraphPad PRISM software, *p<0.05, **p<0.01."}, "[2]": {"assay": "Unbound plasma concentration in human KI mice of the CFA model", "type": "in vivo", "details": "female, human PTGES knock-in (humanized KI, transgenic) mice, mouse, plasma, oral, read-out: Plasma concentration Cplasma-unbound", "experimental": "At termination of the experiments (48 h after CFA, 1 h after dose), hind paw tissue is collected for analysis of PGE2 levels (ELISA, Cayman Chemical item no. 514531). […] Statistical analysis is performed with one-way analysis of variance, followed by Bonferroni's multiple comparison test vs. vehicle controls using the GraphPad PRISM software, *p<0.05, **p<0.01."}, "[3]": {"target": "human PTGES (Homo sapiens (Human), UniProt O14684)", "sequence (O14684 whole entry)": "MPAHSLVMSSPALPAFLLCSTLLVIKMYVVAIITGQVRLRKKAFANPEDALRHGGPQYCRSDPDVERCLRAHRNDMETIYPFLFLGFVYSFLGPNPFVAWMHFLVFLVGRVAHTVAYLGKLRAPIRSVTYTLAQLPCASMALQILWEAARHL", "assay": "Human PTGES biochemical enzyme inhibition assay (conversion of PGH2 to PGE2, TR-FRET)", "details": "Enzymatic conversion of PGH2 to PGE2; read-out: Human PTGES IC50", "outline": "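FLAG-tagged human PTGES from Hi-5 insect cells preincubated 15–20 min with compound in pH 7.2 phosphate buffer with 2.5 mM reduced glutathione; reaction started with 8 nM PGH2 final, stopped with SnCl2/KF.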"}}, "note": "Read-outs that look alike come from different tables or passages of the source.", "data": [{"compound": "Cc1c(CCC(=O)O)cccc1NC(=O)[C@@H](c1ccc(-c2cncc(C(F)(F)F)c2)cc1)C1CCCC1", "note": "[Example 2, (−) (R) 3-{3-[(Cyclopentyl{4-[5-(trifluoromethyl)pyridin-3-yl]phenyl}acetyl)amino]-2-methylphenyl}propanoic acid]", "values": [{"measurement": "% inhibition of PGE2 in vivo vs vehicle", "setting": "[1]; 1 mg/kg", "result": 37, "unit": "%"}, {"measurement": "% inhibition of PGE2 in vivo vs vehicle", "setting": "[1]; 3 mg/kg", "result": 75, "unit": "%"}, {"measurement": "% inhibition of PGE2 in vivo vs vehicle", "setting": "[1]; 10 mg/kg", "result": 94, "unit": "%"}, {"measurement": "concentration at 1 h", "setting": "[2]; 1 mg/kg", "result": 21, "unit": "nM"}, {"measurement": "concentration at 1 h", "setting": "[2]; 3 mg/kg", "result": 62, "unit": "nM"}, {"measurement": "concentration at 1 h", "setting": "[2]; 10 mg/kg", "result": 190, "unit": "nM"}]}, {"compound": "Cc1c(NC(=O)C(c2ccc(-c3cncc(Cl)c3)cc2)C2CCCC2)cccc1C(C)CC(=O)O", "note": "(single isomer, unassigned; stereoisomer 2) [Example 87, 3-[3-({[4-(5-Chloropyridin-3-yl)phenyl](cyclopentyl)acetyl}amino)-2-methylphenyl]butanoic acid, Stereoisomer 2]", "values": [{"measurement": "% inhibition of PGE2 in vivo vs vehicle", "setting": "[1]; 1 mg/kg", "result": 43, "unit": "%"}, {"measurement": "% inhibition of PGE2 in vivo vs vehicle", "setting": "[1]; 3 mg/kg", "result": 65, "unit": "%"}, {"measurement": "% inhibition of PGE2 in vivo vs vehicle", "setting": "[1]; 10 mg/kg", "result": 67, "unit": "%"}, {"measurement": "concentration at 1 h", "setting": "[2]; 1 mg/kg", "result": 25, "unit": "nM"}, {"measurement": "concentration at 1 h", "setting": "[2]; 3 mg/kg", "result": 75, "unit": "nM"}, {"measurement": "concentration at 1 h", "setting": "[2]; 10 mg/kg", "result": 172, "unit": "nM"}]}, {"compound": "Cc1c(NC(=O)C(c2ccc(-c3cncc(Cl)c3)cc2)C2CCC2)cccc1C(C)CC(=O)O", "note": "(single isomer, unassigned; stereoisomer 2) [Example 137]", "values": [{"measurement": "IC50", "setting": "[3]", "result": 2900, "unit": "nM"}]}, {"compound": "Cc1cncc(-c2ccc(C(C(=O)Nc3cccc(C(CC(=O)O)C4CC4)c3C)C3CCCC3)cc2)c1", "note": "(mixture of isomers) [Example 113, (3R/S)-3-[3-({(2R/S)-2-cyclopentyl-2-[4-(5-methylpyridin-3-yl)phenyl]acetyl}amino)-2-methylphenyl]-3-cyclopropylpropanoic acid]", "values": [{"measurement": "IC50", "setting": "[3]", "result": 140, "unit": "nM"}]}, {"compound": "Cc1ncc(-c2ccc(C(C(=O)Nc3cccc(C4CC4C(=O)O)c3C)C3CCCC3)cc2)cc1Cl", "note": "(stereo not drawn) [Example 154, 2-[3-({2-[4-(5-chloro-6-methylpyridin-3-yl)phenyl]-2-cyclopentylacetyl}amino)-2-methylphenyl]cyclopropanecarboxylic acid]", "values": [{"measurement": "IC50", "setting": "[3]", "result": 42.8, "unit": "nM"}]}, {"compound": "Cc1c(CCC(=O)O)cccc1NC(=O)C(c1ccc(-c2cncc(OC3CCOCC3)c2)cc1)C1CCCC1", "note": "(racemic) [Example 15, (R/S) 3-{3-[(Cyclopentyl{4-[5-(tetrahydro-2H-pyran-4-yloxy)pyridin-3-yl]phenyl}acetyl)amino]-2-methylphenyl}propanoic acid]", "values": [{"measurement": "IC50", "setting": "[3]", "result": 114, "unit": "nM"}]}, {"compound": "Cc1c(NC(=O)C(c2ccc(-c3cncc(Cl)c3)c(F)c2)C2CCC2)cccc1C(C)CC(=O)O", "note": "(single isomer, unassigned; stereoisomer 4) [Example 153, 3-[3-({[4-(5-Chloropyridin-3-yl)-3-fluorophenyl](cyclobutyl)acetyl}amino)-2-methylphenyl]butanoic acid, Stereoisomer 4]", "values": [{"measurement": "IC50", "setting": "[3]", "result": 11.7, "unit": "nM"}]}, {"compound": "CCC(CC(=O)O)c1cccc(NC(=O)C(c2ccc(-c3cncc(CC(C)C)c3)c(F)c2)C2CCCC2)c1C", "note": "(single isomer, unassigned) [Example 194, 3-[3-({cyclopentyl[3-fluoro-4-(5-isobutylpyridin-3-yl)phenyl]acetyl}amino)-2-methylphenyl]pentanoic acid, single enantiomer]", "values": [{"measurement": "IC50", "setting": "[3]", "result": 6.82, "unit": "nM"}]}, {"compound": "Cc1c(NC(=O)C(c2ccc(-c3cncc(C(F)(F)F)c3)cc2)C2CCCC2)cccc1C(C)CC(=O)O", "note": "(mixture of isomers) [Example 91, (3R/S)-3-(3-{[(2R/S)-2-Cyclopentyl-2-{4-[5-(trifluoromethyl)pyridin-3-yl]phenyl}acetyl]amino}-2-methylphenyl)butanoic acid]", "values": [{"measurement": "IC50", "setting": "[3]", "result": 20.3, "unit": "nM"}]}, {"compound": "COc1cncc(-c2ccc(C(C(=O)Nc3cccc(CCC(=O)O)c3C)C3CCCC3)cc2)c1", "note": "(racemic) [Example 11, (R/S) 3-[3-({Cyclopentyl[4-(5-methoxypyridin-3-yl)phenyl]acetyl}amino)-2-methylphenyl]propanoic acid]", "values": [{"measurement": "IC50", "setting": "[3]", "result": 341, "unit": "nM"}]}, {"compound": "Cc1c(NC(=O)C(c2ccc(-c3cncc(C(F)(F)F)c3)cc2)C2CCCC2)cccc1C1CC1C(=O)O", "note": "(stereo not drawn) [Example 156, 2-(3-{[2-cyclopentyl-2-{4-[5-(trifluoromethyl)pyridin-3-yl]phenyl}acetyl]amino}-2-methylphenyl)cyclopropanecarboxylic acid]", "values": [{"measurement": "IC50", "setting": "[3]", "result": 32.9, "unit": "nM"}]}, {"compound": "Cc1ncc(-c2ccc(C(C(=O)Nc3cccc(C(C)CC(=O)O)c3C)C3CCCC3)cc2)cc1Cl", "note": "(mixture of isomers) [Example 97, (3R/S)-3-[3-({(2R/S)-2-[4-(5-Chloro-6-methylpyridin-3-yl)phenyl]-2-cyclopentylacetyl}amino)-2-methylphenyl]butanoic acid]", "values": [{"measurement": "IC50", "setting": "[3]", "result": 13, "unit": "nM"}]}, {"compound": "Cc1c(NC(=O)C(c2ccc(-c3cncc(C(F)(F)F)c3)c(F)c2)C2CCCC2)cccc1C(C)CC(=O)O", "note": "(mixture of isomers) [Example 115, (3R/S)-3-(3-{[(2R/S)-2-Cyclopentyl-2-{3-fluoro-4-[5-(trifluoromethyl)pyridin-3-yl]phenyl}acetyl]amino}-2-methylphenyl)butanoic acid]", "values": [{"measurement": "IC50", "setting": "[3]", "result": 18.5, "unit": "nM"}]}, {"compound": "Cc1c(CCC(=O)O)cccc1NC(=O)C(c1ccc(-c2cncc(Cl)c2)cc1)C1CC1", "note": "(racemic) [Example 31, (R/S) 3-[3-({[4-(5-Chloropyridin-3-yl)phenyl](cyclopropyl)acetyl}amino)-2-methylphenyl]propanoic acid]", "values": [{"measurement": "IC50", "setting": "[3]", "result": 443, "unit": "nM"}]}, {"compound": "Cc1ncc(-c2ccc(C(C(=O)Nc3cccc(C(C)CC(=O)O)c3C)C3CCCC3)cc2F)cc1Cl", "note": "(single isomer, unassigned; stereoisomer 1) [Example 121, 3-[3-({[4-(5-Chloro-6-methylpyridin-3-yl)-3-fluorophenyl](cyclopentyl)acetyl}amino)-2-methylphenyl]butanoic acid, Stereoisomer 1]", "values": [{"measurement": "IC50", "setting": "[3]", "result": 382, "unit": "nM"}]}, {"compound": "Cc1cc(-c2ccc(C(C(=O)Nc3cccc(CC(C)C(=O)O)c3C)C3CCCC3)cc2)cnc1C", "note": "(stereo not drawn) [Example 78, (2R/2S)-3-[3-({(2R/2S)-2-Cyclopentyl-2-[4-(5,6-dimethylpyridin-3-yl)phenyl]acetyl}amino)-2-methylphenyl]-2-methylpropanoic acid]", "values": [{"measurement": "IC50", "setting": "[3]", "result": 118, "unit": "nM"}]}, {"compound": "Cc1cc(-c2ccc(C(C(=O)Nc3cccc(C(C)CC(=O)O)c3C)C3CCCC3)cc2)cnc1C", "note": "(mixture of isomers) [Example 93, (3R/S)-3-[3-({(2R/S)-2-Cyclopentyl-2-[4-(5,6-dimethylpyridin-3-yl)phenyl]acetyl}amino)-2-methylphenyl]butanoic acid]", "values": [{"measurement": "IC50", "setting": "[3]", "result": 35.6, "unit": "nM"}]}, {"compound": "Cc1c(NC(=O)C(c2ccc(-c3cncc(Cl)c3)cc2)C2CCC2)cccc1C(C)CC(=O)O", "note": "(single isomer, unassigned; stereoisomer 4) [Example 139]", "values": [{"measurement": "IC50", "setting": "[3]", "result": 107, "unit": "nM"}]}, {"compound": "Cc1c(NC(=O)C(c2ccc(-c3cncc(C(F)(F)F)c3)c(F)c2)C2CCCC2)cccc1C(C)CC(=O)O", "note": "(single isomer, unassigned; stereoisomer 1) [Example 116, 3-{3-[(Cyclopentyl{3-fluoro-4-[5-(trifluoromethyl)pyridin-3-yl]phenyl}acetyl)amino]-2-methylphenyl}butanoic acid, Stereoisomer 1]", "values": [{"measurement": "IC50", "setting": "[3]", "result": 3.49, "unit": "nM"}]}, {"compound": "Cc1c(CCC(=O)O)cccc1NC(=O)C(c1ccc(-c2cncc(OC(F)F)c2)cc1)C1CCCC1", "note": "(racemic) [Example 28, (R/S) 3-{3-[(Cyclopentyl{4-[5-(difluoromethoxy)pyridin-3-yl]phenyl}acetyl)amino]-2-methylphenyl}propanoic acid]", "values": [{"measurement": "IC50", "setting": "[3]", "result": 380, "unit": "nM"}]}, {"compound": "CCc1cncc(-c2ccc(C(C(=O)Nc3cccc(C(CC(=O)O)C4CC4)c3C)C3CCCC3)cc2)c1", "note": "(mixture of isomers) [Example 114, (3R/S)-3-[3-({(2R/S)-2-cyclopentyl-2-[4-(5-ethylpyridin-3-yl)phenyl]acetyl}amino)-2-methylphenyl]-3-cyclopropylpropanoic acid]", "values": [{"measurement": "IC50", "setting": "[3]", "result": 29.5, "unit": "nM"}]}, {"compound": "Cc1c(NC(=O)C(c2ccc(-c3cncc(Cl)c3)cc2)C2CCC2)cccc1C(C)CC(=O)O", "note": "(single isomer, unassigned; stereoisomer 1) [Example 136]", "values": [{"measurement": "IC50", "setting": "[3]", "result": 12.7, "unit": "nM"}]}, {"compound": "CCC(CC(=O)O)c1cccc(NC(=O)[C@@H](c2ccc(-c3cncc(OC(C)C)c3)cc2)C2CCCC2)c1C", "note": "(single isomer, unassigned) [Example 203]", "values": [{"measurement": "IC50", "setting": "[3]", "result": 16.7, "unit": "nM"}]}]}
